In patent publication US8338173B2, “Preparation of antigen-presenting human γδ T cells and use in immunotherapy” (University College Cardiff Consultants Limited, priority 2005, dated 2012):

Columns and labels:
Vγ9Vδ2^+ T cells = test: Expression of cell surface APC markers during γδ T cell activation with inhibitors; settings: FIG. 19 B
[1] = system: M1p58-66-specific CD8^+ αβ T cell clone FLUMA55; type: cell-based, human
naïve CD4^+ αβ T cells = type: cell-based, human
[2] = system: Melp26-35-specific, HLA-A2-restricted CD8^+ αβ T cell clone LAU 337; type: cell-based, human

## C[C@H]1CCC/C=C/[C@@H]2C[C@H](O)C[C@H]2[C@H](O)/C=C/C(=O)O1 [brefeldin A]
Vγ9Vδ2^+ T cells
  expression of cell surface APC markers (MHC II, CD71, CD80, CD86) after TCR-triggering: inhibited
[1]
  inhibition of M1 cross-presentation in γδ T-APCs and DCs: fully inhibited
  responses to M1p58-66 pulsed APCs: only partially affected

## CCN(CC)CCCC(C)Nc1ccnc2cc(Cl)ccc12 (stereo not drawn) [chloroquin]
[1]
  inhibition of M1 cross-presentation in γδ T-APCs and DCs: ≤ 50%

## phytohemagglutinin [PHA]
naïve CD4^+ αβ T cells
  Vβ2^+ (%): 9%

## CC(=O)N[C@@H](CSC(=O)[C@]1([C@@H](O)C(C)C)NC(=O)[C@H](C)[C@@H]1O)C(=O)O [lactacystin]
Vγ9Vδ2^+ T cells
  expression of cell surface APC markers (MHC II, CD71, CD80, CD86) after TCR-triggering: inhibited
[1]
  inhibition of M1 cross-presentation in γδ T-APCs and DCs: fully inhibited
  responses to M1p58-66 pulsed APCs: only partially affected

B1: Melan-A: melanocyte/melanoma-differentiation antigen (protein, UniProt Q16655 1-118, looked up)
Melanoma antigen recognized …: MPREDAHFIYGYPKKGHGHSYTTAEEAAGIGILTVILGVLLLIGCWYCRRRNGYRALMDKSLHVGTQCALTRRCPQEGFDHRDSKVSLQEKNCEPVVPNAPPAYEKLSAEQSPPPYSP
[2]
  IFN-γ production in Melp26-35-specific responder cell clones: failed to induce IFN-γ production
